Legend:
TEC = molecular target: T1, TEC (Homo sapiens, UniProt P42680); test: TEC kinase profiling (BTK protocol); assay type: biochemical; conditions: 0.3 μM compound
T1 construct: purchased Reaction Biology Corporation
T1 sequence (P42680 1-631): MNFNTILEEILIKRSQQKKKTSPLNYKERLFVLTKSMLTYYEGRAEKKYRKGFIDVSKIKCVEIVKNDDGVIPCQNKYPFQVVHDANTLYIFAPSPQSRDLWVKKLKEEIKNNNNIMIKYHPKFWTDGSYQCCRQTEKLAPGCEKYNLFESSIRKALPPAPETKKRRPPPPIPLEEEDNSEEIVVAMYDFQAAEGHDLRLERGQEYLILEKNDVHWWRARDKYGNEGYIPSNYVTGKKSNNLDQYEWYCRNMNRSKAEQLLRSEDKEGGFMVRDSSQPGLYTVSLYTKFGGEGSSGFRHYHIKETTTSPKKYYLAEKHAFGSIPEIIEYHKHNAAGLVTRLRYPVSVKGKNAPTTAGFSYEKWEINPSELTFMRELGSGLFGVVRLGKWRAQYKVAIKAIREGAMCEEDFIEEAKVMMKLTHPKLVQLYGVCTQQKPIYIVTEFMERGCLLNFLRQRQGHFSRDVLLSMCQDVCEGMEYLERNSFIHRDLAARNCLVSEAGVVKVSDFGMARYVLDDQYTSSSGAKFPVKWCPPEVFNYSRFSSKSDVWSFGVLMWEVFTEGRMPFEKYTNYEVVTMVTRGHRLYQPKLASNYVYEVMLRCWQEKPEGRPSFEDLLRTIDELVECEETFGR
Protocol: (§1) BTK assay: In vitro profiling protein kinases was performed using the “HotSpot” assay platform. Briefly, specific kinase/substrate pairs along with required cofactors were prepared in reaction buffer. Compounds were prepared as 10 mM stock solutions in DMSO. Compounds were delivered into the reaction, followed 15-20 minutes later by addition of a mixture of ATP (Sigma, St. Louis Mo.) and ^33P ATP (Perkin Elmer, Waltham Mass.) to a final concentration of 10 μM. […] IC50 values and curve fits were obtained using Prism (GraphPad Software). Buffer Conditions: 20 mM Hepes (pH 7.5), 10 mM MgCl2, 1 mM EGTA, 0.02% Brij35, 0.02 mg/mL BSA, 0.1 mM Na3VO4, 2 mM DTT, 1% DMSO.

ITK = molecular target: T2, ITK (Homo sapiens, UniProt Q08881); test: ITK kinase profiling (BTK protocol); assay type: biochemical; conditions: 0.3 μM compound
T2 construct: purchased Reaction Biology Corporation
T2 sequence (Q08881 1-620): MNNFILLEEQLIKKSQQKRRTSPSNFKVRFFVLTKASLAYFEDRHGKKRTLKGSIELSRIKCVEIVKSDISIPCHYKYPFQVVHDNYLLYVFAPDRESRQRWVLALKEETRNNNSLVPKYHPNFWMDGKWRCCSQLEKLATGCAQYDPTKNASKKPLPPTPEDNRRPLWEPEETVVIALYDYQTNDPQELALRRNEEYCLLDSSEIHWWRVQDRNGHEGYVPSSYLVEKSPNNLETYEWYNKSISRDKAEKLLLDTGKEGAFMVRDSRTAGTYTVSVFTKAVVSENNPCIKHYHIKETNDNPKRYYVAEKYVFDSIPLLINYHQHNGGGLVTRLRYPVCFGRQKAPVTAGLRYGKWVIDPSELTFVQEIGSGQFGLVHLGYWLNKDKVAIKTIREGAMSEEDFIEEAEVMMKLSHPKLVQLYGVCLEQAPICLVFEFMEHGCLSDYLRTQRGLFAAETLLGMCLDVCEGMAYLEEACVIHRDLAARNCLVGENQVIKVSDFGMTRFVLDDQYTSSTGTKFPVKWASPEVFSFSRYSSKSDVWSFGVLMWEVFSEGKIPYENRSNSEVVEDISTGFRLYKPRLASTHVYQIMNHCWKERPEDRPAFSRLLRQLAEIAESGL
Protocol: as §1

BTK = molecular target: T3, BTK (Homo sapiens, UniProt Q06187); test: BTK kinase assay (HotSpot, 33P ATP); assay type: biochemical; conditions: for BTK @ 0.1 μM (% Inh): 0.1 μM compound, 10 μM ATP; for IC50: 10 dose IC50, 10 μM ATP
T3 construct: purchased Reaction Biology Corporation
T3 sequence (Q06187 whole entry): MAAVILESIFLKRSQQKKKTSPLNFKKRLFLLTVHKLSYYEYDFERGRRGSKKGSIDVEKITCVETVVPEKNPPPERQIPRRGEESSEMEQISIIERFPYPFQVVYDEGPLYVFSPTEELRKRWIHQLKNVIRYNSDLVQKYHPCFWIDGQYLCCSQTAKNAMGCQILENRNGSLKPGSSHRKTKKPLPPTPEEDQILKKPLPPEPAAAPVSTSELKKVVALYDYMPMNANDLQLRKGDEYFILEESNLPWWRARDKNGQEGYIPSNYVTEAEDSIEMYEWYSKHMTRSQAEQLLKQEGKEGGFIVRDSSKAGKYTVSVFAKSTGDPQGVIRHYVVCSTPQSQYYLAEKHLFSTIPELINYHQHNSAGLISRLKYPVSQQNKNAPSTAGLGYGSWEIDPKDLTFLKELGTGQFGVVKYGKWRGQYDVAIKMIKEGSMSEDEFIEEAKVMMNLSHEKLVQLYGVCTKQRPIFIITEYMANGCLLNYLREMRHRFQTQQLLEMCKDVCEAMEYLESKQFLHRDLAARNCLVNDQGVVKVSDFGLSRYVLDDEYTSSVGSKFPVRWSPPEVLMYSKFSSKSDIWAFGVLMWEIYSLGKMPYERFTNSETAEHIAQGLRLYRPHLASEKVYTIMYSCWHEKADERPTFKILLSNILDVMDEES
Method in brief: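 In 20 mM Hepes (pH 7.5) with 10 mM MgCl2, 1 mM EGTA, 0.1 mM Na3VO4, 2 mM DTT, 0.02% Brij35, 0.02 mg/mL BSA and 1% DMSO, kinase and substrate were exposed to ten compound doses for 15–20 min.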

CD69+B220+ cells = test: B cell activation assay (IgD-stimulated splenocytes, CD69+B220+ cells by FACS); assay type: cell-based; conditions: 100 nM compound, mouse splenocytes, IgD 3 μg/mL, 4 h
Method in brief: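 Mouse splenocytes (female, ~2 months), red cells lysed, at 10^6 cells/mL, pretreated 30 min at 37 °C with 100 nM compound, then anti-IgD 3 μg/mL for 4 h. Read as CD69+B220+ cells as percentage of live B220+ cells by flow cytometry.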

PI3Kα = molecular target: T4, PI3Kα (Homo sapiens, UniProt P42336); test: PI3Kα isoform profiling (PI3Kδ protocol); assay type: biochemical; conditions: 0.3 μM compound
T4 construct: purchased Reaction Biology Corporation
T4 sequence (P42336 whole entry, canonical isoform): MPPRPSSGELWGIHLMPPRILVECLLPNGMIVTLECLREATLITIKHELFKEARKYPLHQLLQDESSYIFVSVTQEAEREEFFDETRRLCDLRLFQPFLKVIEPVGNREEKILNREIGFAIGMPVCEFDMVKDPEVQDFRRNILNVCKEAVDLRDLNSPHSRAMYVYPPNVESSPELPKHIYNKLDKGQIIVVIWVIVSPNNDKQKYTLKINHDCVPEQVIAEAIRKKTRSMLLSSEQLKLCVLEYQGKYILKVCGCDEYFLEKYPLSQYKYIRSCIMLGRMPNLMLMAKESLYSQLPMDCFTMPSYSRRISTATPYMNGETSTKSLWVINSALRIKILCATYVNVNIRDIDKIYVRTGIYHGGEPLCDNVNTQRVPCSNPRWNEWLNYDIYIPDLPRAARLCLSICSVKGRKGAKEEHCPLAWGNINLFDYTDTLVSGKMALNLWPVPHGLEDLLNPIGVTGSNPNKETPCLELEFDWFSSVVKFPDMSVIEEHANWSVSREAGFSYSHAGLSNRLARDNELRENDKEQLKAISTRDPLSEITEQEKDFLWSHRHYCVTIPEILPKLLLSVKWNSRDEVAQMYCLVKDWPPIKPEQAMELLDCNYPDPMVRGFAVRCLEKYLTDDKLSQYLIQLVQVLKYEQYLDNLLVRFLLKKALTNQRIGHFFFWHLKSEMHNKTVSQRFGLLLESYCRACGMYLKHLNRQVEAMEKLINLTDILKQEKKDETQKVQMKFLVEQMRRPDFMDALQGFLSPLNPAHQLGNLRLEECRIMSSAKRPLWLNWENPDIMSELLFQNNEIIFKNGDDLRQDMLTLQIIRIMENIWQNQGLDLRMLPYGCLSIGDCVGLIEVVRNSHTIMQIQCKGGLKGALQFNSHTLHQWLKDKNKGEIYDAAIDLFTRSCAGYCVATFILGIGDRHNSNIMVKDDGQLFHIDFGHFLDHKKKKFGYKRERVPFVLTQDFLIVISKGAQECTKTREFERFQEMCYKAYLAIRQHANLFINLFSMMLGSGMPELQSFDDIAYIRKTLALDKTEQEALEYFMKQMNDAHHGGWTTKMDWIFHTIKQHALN
T4 sequence (P27986 whole entry partner, canonical isoform): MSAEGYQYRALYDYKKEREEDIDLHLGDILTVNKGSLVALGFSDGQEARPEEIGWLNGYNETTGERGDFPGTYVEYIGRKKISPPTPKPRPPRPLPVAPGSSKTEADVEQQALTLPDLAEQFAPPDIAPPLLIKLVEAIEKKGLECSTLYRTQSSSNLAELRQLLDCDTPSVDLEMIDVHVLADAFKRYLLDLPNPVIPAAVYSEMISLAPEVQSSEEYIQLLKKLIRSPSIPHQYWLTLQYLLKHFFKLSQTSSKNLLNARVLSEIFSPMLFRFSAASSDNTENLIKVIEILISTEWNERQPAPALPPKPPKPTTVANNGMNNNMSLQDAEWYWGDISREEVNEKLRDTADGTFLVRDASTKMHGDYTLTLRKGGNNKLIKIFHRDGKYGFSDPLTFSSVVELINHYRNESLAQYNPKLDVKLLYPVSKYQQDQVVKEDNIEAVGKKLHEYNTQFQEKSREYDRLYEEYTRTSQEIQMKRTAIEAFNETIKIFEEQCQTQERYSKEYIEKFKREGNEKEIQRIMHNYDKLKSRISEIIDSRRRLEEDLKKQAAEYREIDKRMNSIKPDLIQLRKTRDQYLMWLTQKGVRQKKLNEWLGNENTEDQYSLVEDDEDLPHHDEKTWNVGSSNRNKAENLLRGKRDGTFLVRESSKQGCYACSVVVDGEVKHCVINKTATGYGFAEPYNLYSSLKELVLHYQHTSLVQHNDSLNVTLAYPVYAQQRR
Description: PI3Kδ assay: The PIP3 product is detected by displacement of biotin-PIP3 from an energy transfer complex consisting of Europium labeled anti-GST monoclonal antibody, a GST-tagged pleckstrin homology (PH) domain, biotinylated PIP3 and Streptavidin-Allophycocyanin (APC). Excitation of Europium in the complex results in an energy transfer to the APC and a fluorescent emission at 665 nm. The PIP3 product formed by PI 3-Kinase(h) activity displaces biotin-PIP3 from the complex resulting in a loss of energy transfer and thus a decrease in signal. This is a 3-step reaction: First, the kinase reaction with PIP2 substrate is carried out in the presence of ATP (10 μM), and the reaction is quenched with stop Solution, and then finally detect by adding Detection Mixture followed by incubation (10 min). Reaction procedure: 1) Prepare substrate in freshly prepared Reaction Buffer. 2) Deliver kinase into the substrate solution and gently mix. 3) Deliver compounds in 100% DMSO (1 μM) into the kinase reaction mixture by Acoustic technology (Echo550; nanoliter range), incubate for 10 min at RT. 4) Deliver ATP into the reaction mixture to initiate the reaction. 5) Incubate for 30 min at 30° C. 6) Quench the reaction with Stop Solution. 7) Add Detection Mixture, and incubate for overnight. 8) Measure HTRF: Ex=320 nm, ratio of Em=615 nm and Em=665 nm. The emission ratio is converted into μM PIP3 production based on PIP3 standard curves. The nonlinear regression to obtain the standard curve and IC50 values are performed using Graphpad Prism software. Assay Buffer: HEPES 50 mM (pH7.0), NaN3 0.02%, BSA 0.01%, Orthovanadate 0.1 mM, 1% DMSO. Detection buffer: HEPES 10 mM (pH7.0), BSA 0.02%, KF 0.16 M, EDTA 4 mM. Substrate: 10 μM PIP2 substrate (PI(4,5)P2).
Compounds of the invention were profiled in a 10 dose IC50 panel against PI3Kα, PI3Kβ, and PI3Kγ kinases, provided by Reaction Biology Corporation, applied to the PI3Kδ protocol provided in Example B1.

COc1ccc(-c2nn(C3CCc4ccccc4C3)c3ncnc(N)c23)cc1OC (racemic) [compound 17, 3-(3,4-dimethoxyphenyl)-1-(1,2,3,4-tetrahydronaphthalen-2-yl)-1H-pyrazolo[3,4-d]pyrimidin-4-amine]
TEC @ 0.3 μM (% Inh) (TEC): 11.45 % Inh | ITK @ 0.3 μM (% Inh) (ITK): −0.36 % Inh | BTK @ 0.1 μM (% Inh) (BTK): 41.16 % Inh | IC50 (BTK): 164 nM | CD69 @ 100 nM (% Inh) (CD69+B220+ cells): 33.56 ± 13.70 (n = 5) % Inh

Nc1ncnc2c1c(-c1ccc(Br)c(O)c1)nn2C1CCc2ccccc2C1 (stereo not shown) [compound 8, 5-(4-amino-1-(1,2,3,4-tetrahydronaphthalen-2-yl)-1H-pyrazolo[3,4-d]pyrimidin-3-yl)-2-bromophenol]
TEC @ 0.3 μM (% Inh) (TEC): 20.18 % Inh | PI3Kα @ 0.3 μM (% Inh) (PI3Kα): 76.76 % Inh | ITK @ 0.3 μM (% Inh) (ITK): 0.02 % Inh | BTK @ 0.1 μM (% Inh) (BTK): 48.87 % Inh | IC50 (BTK): 26.1 nM

From patent US20210317140A1, “Heterocyclic Compounds and Methods of Use” (MEDIVATION TECHNOLOGIES, INC, priority 2013, published 2021)
